Among the data in PubChem BioAssay (NCI) are GI50 and TGI values, retold here.

Test systems include MCF7 breast; K-562 leukemia; SK-MEL-5 melanoma; NCI/ADR-RES ovarian; NCI-H460 lung; RXF 393 renal; SNB-75 CNS; EKVX NSCLC; SR leukemia; T-47D breast.
Assay in all cases: NCI-60 cell line screen, 48 h

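Dose response: 5 concentrations. Exposure: 48 h. Format: 96-well plates. Endpoint: linear interpolation; highest concentration if not reached. Abbreviation: GI50, concentration required for 50% inhibition of growth. The concentration for full growth arrest is given as TGI.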

With `COc1ccc2[nH]cc(-c3nc(-c4c[nH]c5ccncc45)cs3)c2c1`, the GI50 with MCF7 breast is 1.66 µM; in the test with K-562 leukemia it was 1720 nM; in the test on SK-MEL-5 melanoma it was 1650 nM; in the test on NCI/ADR-RES ovarian it was 2.48 µM; with NCI-H460 lung it was 1840 nM; in the test on RXF 393 renal it was 1740 nM. The values for the GI50 with SNB-75 CNS and in the test with EKVX NSCLC were 6.96 µM and 1.99 µM, respectively. The TGI in the test on MCF7 breast was 3.4 µM; in the test with K-562 leukemia, 4.7 µM; in the test on SK-MEL-5 melanoma, 3.05 µM; in the test with NCI/ADR-RES ovarian it was 6.84 µM; in the test on NCI-H460 lung it was 3.73 µM; in the test with RXF 393 renal it was 3.33 µM. The TGI was 20.1 µM with SNB-75 CNS and 4.88 µM in the test with EKVX NSCLC.
Regarding `N=C(N)c1ccc(-c2ccc(-c3ccc(F)cc3)o2)o1`, the GI50 with MCF7 breast is 0.685 µM; with SK-MEL-5 melanoma, 1560 nM; in the test with NCI/ADR-RES ovarian, 1.67 µM; in the test with NCI-H460 lung it was 1760 nM; with RXF 393 renal it was 1600 nM; in the test on SNB-75 CNS it was 1.55 µM. For the same molecule, the GI50 with EKVX NSCLC was 1.35 µM. For the same molecule, the TGI with MCF7 breast amounted to 2.38 µM; with SK-MEL-5 melanoma, 2.92 µM; in the test on NCI/ADR-RES ovarian, 4.1 µM; in the test with NCI-H460 lung, 3.36 µM; in the test with RXF 393 renal, 3.4 µM; with SNB-75 CNS, 3.49 µM. Moreover, in the test with EKVX NSCLC, the TGI worked out at 3.18 µM.
In the case of `COc1ccccc1NC(=O)CC(=O)NNCC(=O)Nc1nnc(-c2ccccc2)o1`, the TGI with K-562 leukemia, with SK-MEL-5 melanoma, in the test on SR leukemia, with SNB-75 CNS and in the test with EKVX NSCLC was over 100 µM in each case.
Consider `CC(=O)OC12CC(C)C3(O)C4C=C(C)C(=O)[C@@]4(O)CC(CO)=C[C@H]3C1C2(C)C` (stereo partly specified), for which the GI50 in the test with MCF7 breast was over 1000 µM; in the test with SK-MEL-5 melanoma, 33400 nM; with NCI/ADR-RES ovarian, over 1000 µM; with SR leukemia, over 1000 µM; with SNB-75 CNS, over 1000 µM; in the test on EKVX NSCLC it was over 1000 µM. Also, the TGI in the test with MCF7 breast, with SK-MEL-5 melanoma, in the test with NCI/ADR-RES ovarian, in the test on SR leukemia, in the test with SNB-75 CNS and in the test on EKVX NSCLC was over 1000 µM throughout.
Consider `COC(=O)n1c(CBr)c(Br)c2ccccc21`, for which the TGI is over 100 µM in the test with K-562 leukemia; over 100 µM in the test on SK-MEL-5 melanoma; 74.9 µM in the test on NCI-H460 lung; 80.6 µM in the test on SR leukemia; 47.1 µM with SNB-75 CNS.
With `CC1=CC2CC(C)C1(C)CCc1ccoc12` (stereo unspecified), the TGI in the test with K-562 leukemia, in the test on SK-MEL-5 melanoma, in the test with NCI-H460 lung, with RXF 393 renal, in the test with SR leukemia and with SNB-75 CNS was over 100 µM in each case. In addition, the TGI in the test with EKVX NSCLC is over 100 µM.
Regarding `CC(=O)O[C@H]1CC[C@@]2(C)C(=CC[C@@H]3C2CC[C@]2(C)Nc4[nH]ncc4CC32)C1` (stereo partly specified), the TGI in the test on K-562 leukemia was 52.8 µM; with SK-MEL-5 melanoma, 42.5 µM; in the test on NCI-H460 lung, 33.7 µM; in the test on RXF 393 renal, over 100 µM; in the test on SNB-75 CNS, over 100 µM; with EKVX NSCLC, over 100 µM.
For the molecule `COc1ccc(C(O)/C(=C/n2ccnc2)c2ccccc2)cc1OC` (stereo unspecified), the TGI in the test with K-562 leukemia, in the test on SK-MEL-5 melanoma, in the test with NCI-H460 lung, with RXF 393 renal, in the test with SR leukemia and in the test with SNB-75 CNS was over 100 µM throughout. The molecule further registered a TGI in the test with EKVX NSCLC of over 100 µM.
`O=C(O)CCCNS(=O)(=O)c1ccc2ccccc2c1`: the TGI with K-562 leukemia, with SK-MEL-5 melanoma, in the test with NCI-H460 lung, with RXF 393 renal, in the test with SNB-75 CNS and in the test with EKVX NSCLC was over 100 µM throughout.
`CCC[CH2][Sn]1([CH2]CCC)[O]C(=O)CN=Cc2ccccc2[O]1`: the GI50 with K-562 leukemia is 192 nM; in the test on SK-MEL-5 melanoma, 1490 nM; in the test on NCI-H460 lung, 1280 nM; in the test with RXF 393 renal, 144 nM; in the test on SNB-75 CNS it was 0.282 µM; in the test on EKVX NSCLC it was 0.477 µM. In addition, the TGI is 1.27 µM in the test on K-562 leukemia; over 100 µM in the test on SK-MEL-5 melanoma; 2.6 µM with NCI-H460 lung; 0.306 µM in the test on RXF 393 renal; 0.849 µM in the test with SNB-75 CNS; 1.81 µM with EKVX NSCLC.
On to `Cc1c(O)c(=O)ccn1CCO`, for which the TGI with K-562 leukemia, with SK-MEL-5 melanoma, in the test with NCI-H460 lung, in the test on RXF 393 renal, in the test with SR leukemia and with SNB-75 CNS was over 100 µM in each case. In the test with EKVX NSCLC, this molecule returned a TGI of over 100 µM.
Take `COc1cc2c(c(OC)c1OC)-c1ccc(SC)c(=O)cc1C(CC(=O)Oc1cccc(C#N)c1)C2` (stereo unspecified): the TGI in the test on SK-MEL-5 melanoma is 40.8 µM; with NCI-H460 lung it was 19.7 µM; with SR leukemia, 56.3 µM; in the test on EKVX NSCLC, over 100 µM.
On to `COc1ccc(C2=C(c3cc(OC)c(OC)c(OC)c3)C(=O)OC2)cc1OC`, for which the GI50 in the test with MCF7 breast is under 0.0187 µM; with K-562 leukemia it was under 15.3 nM; with SK-MEL-5 melanoma, 18.2 nM; in the test with NCI-H460 lung, under 22.2 nM; with RXF 393 renal, 14.6 nM; in the test on SR leukemia, under 0.01 µM. Moreover, the GI50 in the test on SNB-75 CNS was over 100 µM; in the test with T-47D breast it was 54 µM; in the test on EKVX NSCLC it was 34.5 µM. Besides, the TGI is over 100 µM with MCF7 breast; over 100 µM with K-562 leukemia; 1.5 µM with SK-MEL-5 melanoma; over 42.6 µM in the test on NCI-H460 lung; over 100 µM with RXF 393 renal; over 100 µM with SNB-75 CNS. Moreover, the TGI in the test on T-47D breast and in the test with EKVX NSCLC was over 100 µM throughout.
As for `COC(=O)C1=Cc2c(cc(OC)c(OC)c2OC)[C@H](c2ccc(OC)c(OC)c2OC)C1C(=O)OC` (stereo partly specified), the TGI with K-562 leukemia, in the test with SK-MEL-5 melanoma, in the test on NCI-H460 lung, in the test with RXF 393 renal, with SR leukemia and in the test on SNB-75 CNS was over 100 µM throughout. In the test with EKVX NSCLC, this molecule had a TGI of over 100 µM.
Regarding `Nc1nc(SCCC/C=C/I)nc2c1ncn2C1OC(CO)C(O)C1O` (stereo unspecified), the TGI with K-562 leukemia, in the test on SK-MEL-5 melanoma, with NCI-H460 lung, in the test on SR leukemia and in the test on SNB-75 CNS was over 202 µM in each case.
`CNC(=O)OCc1[nH]ccc2c(C)c3nc4ccc(OC)cc4c3cc12`: the TGI with K-562 leukemia was over 22.5 µM; in the test on SK-MEL-5 melanoma it was 12.8 µM; in the test on RXF 393 renal it was 8.72 µM; in the test on SR leukemia, 1.98 µM; in the test with SNB-75 CNS, over 100 µM; in the test on EKVX NSCLC, over 100 µM.
